Data from PMC11243320, “Tailoring Fibroblast-Activation Protein Targeting for Theranostics: A Comparative Preclinical Evaluation of the ^68Ga- and ^177Lu-Labeled Monomeric and Dimeric Fibroblast-Activation Protein Inhibitors DOTA.SA.FAPi and DOTAGA.(SA.FAPi)2” (Molecules, 2024).

Experiments:
[1] = Lipophilicity LogD octanol/PBS pH 7.4, shake-flask method; type: physicochemical
Experimental: (§1) The lipophilicity (LogDoctanol/PBS) and protein binding of the four radiotracers in human serum were determined as described in the Supplemental Data. […]
minimum conjugate amount. Briefly, the Ge-68/Ga-68 generator was eluted with 5 mL HCl 0.1 N and the eluate (~300 MBq) was loaded onto a cation exchange column (Strata-XC, Phenomenex). […]
After the labeling with gallium-68 or lutetium-177 and the quality control of the generated radiotracers, one equivalent of either natGa(NO3)3 or natLuCl3∙6H2O was added to the relevant radiolabeling solutions. […] The homogeneity was determined by HPLC, […]
Lipophilicity /Protein Binding Studies and Metabolic Stability in Human Serum The lipophilicity (LogD Octanol/PBS, pH 7.4) was estimated by the “shake –flask” method: the labelled conju-gate (20 pmol; 0.3 MBq) was added to a 1:1 mixture of 1-octanol (500 μL) and PBS (500 μL, pH 7.4). […] From each phase, an aliquot (50 μL) was pipetted out and measured in a gamma counter. […] The partition coefficient was calculated as the average log ratio of the radioactivity in the organic fraction and […]

human serum proteins = assay: Binding to human serum proteins, 30 min incubation; type: in vitro ADME; details: 37 °C
Experimental: as §1
minimum conjugate amount. Briefly, the Ge-68/Ga-68 generator was eluted with 5 mL HCl 0.1 N and the eluate (~300 MBq) was loaded onto a cation exchange column (Strata-XC, Phenomenex). Gallium-68 was eluted with 700 μL of a mixture of 5.5 M NaCl / 0.1 M HCl (prepared by mixing 0.530 mL of ultrapure 30% aq. HCl and 49.5 mL of 5.5M NaCl) directly into a vial containing 400 μL of 1.8 M sodium acetate buffer (pH 4.3) for DOTA.SA.FAPi or 2 mL 1.45 M HEPES (pH 4.1) for DOTAGA.(SA.FAPi)2, 2 mL H2O (only in case of DOTA.SA.FAPi), 200 μL of EtOH, and 20 μg (approximately 20 nmol) of the conjugate, followed by Sep-Pak C-18 purification to remove uncomplexed gallium-68. The purified [68Ga]Ga-DOTA.SA.FAPi and [68Ga]Ga-DO,TAGA.(SA.FAPi)2 were eluted in 2.7 mL of a solution of 12% EtOH in PBS. […]
The 68Ga- and 177Lu-labelled radiotracers (20 pmol; 0.3 MBq) were incubated with commercially available human serum (0.5 mL) at 37 °C for 30 min. […] After careful separation of the two phases, the respective activities were measured in a gamma counter, followed by determination of the percentage of the radiotracer that bound […]

| SMILES | Lipophilicity LogDoctanol/PBS-pH7.4 [1] | Percentage of human serum protein bound activity (human serum proteins) |
| --- | --- | --- |
| N#C[C@@H]1CC(F)(F)CN1C(=O)CNC(=O)c1ccnc2ccc(OCCCCNc3c(NCCNC(=O)CN4CCN(CC(=O)[O-])CCN(CC(=O)[O-])CCN(CC(=O)[O-])CC4)c(=O)c3=O)cc12.[177Lu+3] [[^177Lu]Lu-DOTA.SA.FAPi] | −2.86 ± 0.06 | 9.9 ± 4.4% |
| N#C[C@@H]1CC(F)(F)CN1C(=O)CNC(=O)c1ccnc2ccc(OCCCCNc3c(NCCNC(=O)CN4CCN(CC(=O)[O-])CCN(CC(=O)[O-])CCN(CC(=O)[O-])CC4)c(=O)c3=O)cc12.[68Ga+3] [[^68Ga]Ga-DOTA.SA.FAPi] | −3.38 ± 0.03 | 10.6 ± 3.9% |
